This note sets out measurements from US11780839B2, “Compounds for treating Huntington's disease” (PTC THERAPEUTICS, INC., priority 2018, dated 2023).

SMILES strings stand for the structures.

This assay has as its system Endogenous Huntingtin Protein. Kind of assay: Endogenous Huntingtin Protein Assay (ELISA-based Meso Scale Discovery electrochemiluminescence). The assay is classed as cell-based. As to conditions: MSD electrochemiluminescence, Table 1. In outline:
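Sandwich MSD electrochemiluminescence immunoassay. Capture used MW1 (expanded polyglutamine) or MAB2166 antibody coated at 1 μg/mL overnight at 4 °C. Samples were bound overnight at 4 °C, then a rabbit monoclonal detection antibody and SULFO-TAG anti-rabbit, each at 0.25 μg/mL, were applied for 1 h at room temperature.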
Compound `CN(c1ncc(-c2ccc(-c3nnn(C)n3)cc2O)nn1)C1CC(C)(C)NC(C)(C)C1` [Cpd 143, 2-{3-[methyl(2,2,6,6-tetramethylpiperidin-4-yl)amino]-1,2,4-triazin-6-yl}-5-(2-methyl-2H-tetrazol-5-yl)phenol] registered an IC50 not above 100 nM.

The compound `Oc1cc(-c2cn[nH]c2)ccc1-c1cnc(N2CCC(NC3C4CC5CC(C4)CC3C5)C2)nn1` (stereo not drawn) [Cpd 159, 2-(3-{3-[(adamantan-2-yl)amino]pyrrolidin-1-yl}-1,2,4-triazin-6-yl)-5-(1H-pyrazol-4-yl)phenol] displayed an IC50 of 1000 to 3000 nM.

`COc1cc(-c2ccc(-c3cnc(N4CCC(NC(C)(C)C)C4)nn3)c(O)c2)ncn1` (stereo not drawn) [Cpd 217, 2-{3-[3-(tert-butylamino)pyrrolidin-1-yl]-1,2,4-triazin-6-yl}-5-(6-methoxypyrimidin-4-yl)phenol] yielded a 50% inhibitory concentration (IC50) not above 100 nM.

Compound `CN1CC[C@H]2CN(c3ncc(-c4ccc(-c5c[nH]nc5F)cc4O)nn3)CC[C@H]21` [Cpd 153, 5-(3-fluoro-1H-pyrazol-4-yl)-2-{3-[(3aS,7aR)-1-methyloctahydro-5H-pyrrolo[3,2-c]pyridin-5-yl]-1,2,4-triazin-6-yl}phenol] showed an IC50 of 100 to 500 nM.

For `CC1CC(NC(C)(C)C)CN1c1ncc(-c2ccc(-c3cn[nH]c3)cc2O)nn1` (stereo not drawn) [Cpd 171, 2-{3-[4-(tert-butylamino)-2-methylpyrrolidin-1-yl]-1,2,4-triazin-6-yl}-5-(1H-pyrazol-4-yl)phenol], the IC50 is not above 100 nM.

On to `CN(c1ncc(-c2ccc(-n3cnc(Cl)n3)cc2O)nn1)C1CC(C)(C)NC(C)(C)C1` [Cpd 133, 5-(3-chloro-1H-1,2,4-triazol-1-yl)-2-{3-[methyl(2,2,6,6-tetramethylpiperidin-4-yl)amino]-1,2,4-triazin-6-yl}phenol], for which the IC50 is not above 100 nM.

`CC(C)(C)NC1CCN(c2ncc(-c3ccc(-c4cn[nH]c4)cc3O)nn2)C1` (stereo not drawn) [Cpd 138, 2-{3-[3-(tert-butylamino)pyrrolidin-1-yl]-1,2,4-triazin-6-yl}-5-(1H-pyrazol-4-yl)phenol] had a concentration for half-maximal inhibition (IC50) not above 100 nM.

`CN(c1ncc(-c2ccc(-n3cc(C#N)cn3)cc2O)nn1)C1CC(C)(C)NC(C)(C)C1` [Cpd 135, 1-(3-hydroxy-4-{3-[methyl(2,2,6,6-tetramethylpiperidin-4-yl)amino]-1,2,4-triazin-6-yl}phenyl)-1H-pyrazole-4-carbonitrile]: the IC50 was in the range of 100 to 500 nM.

Regarding `CC1(C)CC(Nc2ncc(-c3ccc(-n4nccn4)cc3O)nn2)C(F)C(C)(C)N1` (stereo not drawn) [Cpd 324, 2-{3-[(3-fluoro-2,2,6,6-tetramethylpiperidin-4-yl)amino]-1,2,4-triazin-6-yl}-5-(2H-1,2,3-triazol-2-yl)phenol], the IC50 is not above 100 nM.

Compound `CC1(C)C[C@H](Nc2ncc(-c3ccc(-n4cnc(F)c4)cc3O)nn2)[C@H](F)C(C)(C)N1` [Cpd 240, 5-(4-fluoro-1H-imidazol-1-yl)-2-(3-{[(3S,4S)-3-fluoro-2,2,6,6-tetramethylpiperidin-4-yl]amino}-1,2,4-triazin-6-yl)phenol] showed an IC50 not above 100 nM.

Compound `CC(C)(C)NC1CCN(c2ncc(-c3ccc(-c4c[nH]nc4F)cc3O)nn2)C1` (stereo not drawn) [Cpd 174, 2-{3-[3-(tert-butylamino)pyrrolidin-1-yl]-1,2,4-triazin-6-yl}-5-(3-fluoro-1H-pyrazol-4-yl)phenol] displayed an IC50 not above 100 nM.

Compound `Cc1cnc(-c2ccc(-c3cnc(N(C)C4CC(C)(C)NC(C)(C)C4)nn3)c(O)c2)o1` [Cpd 1, 5-(5-methyl-1,3-oxazol-2-yl)-2-{3-[methyl(2,2,6,6-tetramethylpiperidin-4-yl)amino]-1,2,4-triazin-6-yl}phenol] showed an IC50 of more than 500 nM.
